# Source: patent publication US10538561B2, “Peptide for treating inflammatory diseases” (priority 2015, dated 2020)
# Marks after values point to notes of the source that are not given here.
# How the values were obtained:
# IL-6 = experiment: LPS stimulated IL-6 secretion in RAW264.7; format: cell-based, Mouse; conditions: for IL-6 % decrease with respect to LPS / IL-6 Conc (pg/ml): RAW264.7 + LPS, 24 h
# Method: (§1) Effect on pro-inflammatory cytokines against LPS stimulation: TNF-α; IL-6; IL-1-β: Cell lines: Murine macrophage cell line (RAW264.7); test item: IS181; experimental steps: pretreatment of cells with TI for 2 hours; stimulation with LPS (100 ng/ml) for 24 hours; supernatant collection for cytokine analysis; concentration range: o.1 μg/ml-500 μg/ml (duplicate wells); Cytokines: TNF-α; IL-6; IL-1-β; Method of estimating cytokines: ELISA; positive control: dexamethasone.
# (§2) Cell line: RAW264.7 (Mouse macrophages); TI treatment regimen: Pretreatment for 2 h; TI Concentration range: 0.1 μg/ml-500 μg/ml (duplicate wells); LPS stimulation: 100 ng/ml; Time point for supernatants collection: 24 h; Method of estimation: ELISA; Positive control: Dexamethasone
# PRKCA (PKC alpha) = PRKCA (PKC alpha) (Homo sapiens, UniProt P17252); experiment: Biochemical kinase assay PRKCA
# Method: Test system: cell free assays; test items: IS181; concentrations tested: 1 ng/ml-5000 μg/ml; Kinases: a) Cell free assays: EGFR (ErbB1); FLT1 (VEGFR1); JAK1; JAK3 MAP2K1 (MEK1); PDGFRA (PDGFR alpha); PRKCA (PKC alpha); b) cell based assay: JAK-STAT.
# [1] = tested on: Human Keratinocytes (HaCaT); experiment: Annexin-V assay; format: cell-based; conditions: 48 h
# Method: Cell lines: Human Keratinocytes (HaCaT); test Item (TI): IS181; Treatment regimen: treated twice (once after 24 hours)-48 hours; concentration range: 100 6 g/ml-5000 6 g/ml. […] (c) cells were treated with IS181 for 24 hours; (d) after 24 hours, cells were again treated with IS181 for 24 hours; (e) after 48 hours of first treatment, cells were stained with Annexin-V reagent and acquired on flow cytometer; (f) fold increase in apoptotic cells (early and late apoptotic) and necrotic cells was calculated with respect to untreated control cells. Positive control: Curcumin. […] (FIG. 4)
# Caspase-3 enzyme = experiment: Caspase-3 assay; format: cell-based, Human; conditions: HaCaT, 48 h
# Method: Cell lines: Human Keratinocytes (HaCaT); Test Item (TI): IS 181; Treatment regimen: Multiple additions (2)—48 hours; Concentration range: 100 μg/ml to 5000 μg/ml (Duplicate wells); Sera Condition: Medium containing 1% FBS. […] Cells were lysed and protein was estimated. The above lysates were processed further for Caspase-3 enzyme activity assay using colorimetric based method. Percentage induction of Caspase-3 enzyme activation with respect to untreated; Positive control: Anthralin. IS 181 led to induction of Caspase-3 enzyme activation in HaCaT cells at all the concentrations tested except at 100 μg/ml. […] (FIGS. 7A-7B)
# IL-1-β = experiment: LPS stimulated IL-1-β secretion in RAW264.7; format: cell-based, Mouse; conditions: for IL-1-β % decrease with respect to LPS / IL-1-β Conc: RAW264.7 + LPS, 24 h
# Method: as §1, §2
# [2] = Cell viability (MTT assay) in PBMCs; format: cell-based, Human; conditions: human, PBMCs
# Method: (§3) Cell Lines/Cells: Human Keratinocytes (HaCaT); Human melanoma (SK-MEL-28); Human PBMCs. Test Item: IS181 Treatment regimen: Single addition—24 h, ^#Multiple additions (3)−72 h; Concentration range: 1 ng/ml-2 mg/ml (triplicate wells); Sera Condition: […] Method of estimation: MTT assay. […] Positive control: Triton-X-100, Doxorubicin Hydrochloride.
# Human PBMCs = experiment: Cell viability (MTT assay) in PBMCs; format: cell-based; conditions: for IC50 value / cytotoxicity: PBMCs
# Method: as §3
# [3] = Maximum feasible concentration and formulation stability; format: physicochemical
# Method: The solution stability of peptide IS 181 was performed in four different diluents at three different temperatures for 24 hours. Four different pre-formulations of concentration 10 mg/ml were prepared and formulation assay was performed at initial and […] at room temperature.
# [4] = 10% v/v Propylene glycol in 0.9% NaCl (for IM& SC)
substance,measurement,setting,value
"H-WVQRVVEKFLK-OH [IS181, H-Trp-Val-Gln-Arg-Val-Val-Glu-Lys-Phe-Leu-Lys-OH]",IL-6 inhibition as compared to LPS stimulated levels,IL-6; RAW264.7,good extent of TNF-α and IL-6 inhibition
same,IL-6 % decrease with respect to LPS,IL-6; 0.1 μ/ml,57.2%
same,IL-6 Conc (pg/ml),IL-6; 0.1 μ/ml,908.7*** pg/ml
same,IL-6 % decrease with respect to LPS,IL-6; 1 μ/ml,41.2%
same,IL-6 Conc (pg/ml),IL-6; 1 μ/ml,1248.3*** pg/ml
same,IL-6 % decrease with respect to LPS,IL-6; 5 μ/ml,26.3%
same,IL-6 Conc (pg/ml),IL-6; 5 μ/ml,1565.9*** pg/ml
same,IL-6 % decrease with respect to LPS,IL-6; 10 μ/ml,76.4%
same,IL-6 Conc (pg/ml),IL-6; 10 μ/ml,501.5*** pg/ml
same,IL-6 % decrease with respect to LPS,IL-6; 100 μ/ml,35.4%
same,IL-6 Conc (pg/ml),IL-6; 100 μ/ml,1371.8*** pg/ml
same,IL-6 % decrease with respect to LPS,IL-6; 500 μ/ml,68.5%
same,IL-6 Conc (pg/ml),IL-6; 500 μ/ml,669.1*** pg/ml
same,inhibition of IL-6 secretion as compared to LPS treated cells,"IL-6; RAW264.7, 0.1 μg/ml-500 μg/ml",26.3%-76.4%
same,inhibition at 10 µg/mL,PRKCA (PKC alpha); 10 μg/ml,20%
same,inhibition at 50 µg/mL,"PRKCA (PKC alpha); cell free, 50 μg/ml",20%
same,inhibition at 100 µg/mL,"PRKCA (PKC alpha); cell free, 100 μg/ml",8%
same,inhibition at 250 µg/mL,"PRKCA (PKC alpha); cell free, 250 μg/ml",-8%
same,inhibition at 500 µg/mL,"PRKCA (PKC alpha); cell free, 500 μg/ml",-17%
same,inhibition at 1000 µg/mL,"PRKCA (PKC alpha); cell free, 1000 μg/ml",-19%
same,inhibition at 2000 µg/mL,"PRKCA (PKC alpha); cell free, 2000 μg/ml",-80%
same,increase in late apoptotic cells vs untreated,[1]; 2000 μg/ml,2.1 fold
same,increase in necrotic cells vs untreated,[1]; 2000 μg/ml,7.9 fold
same,increase in early apoptotic cells vs untreated,[1]; 5000 μg/ml,2.3 fold
same,increase in late apoptotic cells vs untreated,[1]; 5000 μg/ml,5.3 fold
same,increase in necrotic cells vs untreated,[1]; 5000 μg/ml,4.5 fold
same,Percentage induction of caspase-3 enzyme activation with respect to untreated,Caspase-3 enzyme; 100 μg/ml,−20.37
same,Percentage induction of caspase-3 enzyme activation with respect to untreated,Caspase-3 enzyme; 500 μg/ml,7.41
same,Percentage induction of caspase-3 enzyme activation with respect to untreated,Caspase-3 enzyme; 1000 μg/ml,29.63
same,Percentage induction of caspase-3 enzyme activation with respect to untreated,Caspase-3 enzyme; 2000 μg/ml,50
same,IL-1-β inhibition as compared to LPS stimulated levels,IL-1-β; RAW264.7,good extent of IL-1-β inhibition
same,IL-1-β % decrease with respect to LPS,IL-1-β; 0.1 μ/ml,90.0%
same,IL-1-β Conc,IL-1-β; 0.1 μ/ml,2.2 pg/mL
same,IL-1-β % decrease with respect to LPS,IL-1-β; 1 μ/ml,30.3%
same,IL-1-β Conc,IL-1-β; 1 μ/ml,15.4 pg/mL
same,IL-1-β % decrease with respect to LPS,IL-1-β; 5 μ/ml,53.7%
same,IL-1-β Conc,IL-1-β; 5 μ/ml,10.2 pg/mL
same,IL-1-β % decrease with respect to LPS,IL-1-β; 10 μ/ml,71.9%
same,IL-1-β Conc,IL-1-β; 10 μ/ml,6.2 pg/mL
same,IL-1-β % decrease with respect to LPS,IL-1-β; 100 μ/ml,42.4%
same,IL-1-β Conc,IL-1-β; 100 μ/ml,12.7 pg/mL
same,IL-1-β % decrease with respect to LPS,IL-1-β; 500 μ/ml,72.6%
same,IL-1-β Conc,IL-1-β; 500 μ/ml,6.1 pg/mL
same,decrease in IL-1-β level,"IL-1-β; RAW264.7, 0.1 μg/ml-500 μg/ml",30.3%-90%
same,"cytotoxicity at 24 h, 1000 μg/ml","[2]; human PBMCs, 24 h, 1000 μg/ml",40.2%
same,"cytotoxicity at 24 h, 2000 μg/ml","[2]; human PBMCs, 24 h, 2000 μg/ml",53%
same,"cytotoxicity at 72 h, 500 μg/ml","[2]; human PBMCs, 72 h, 500 μg/ml",32.7%
same,"cytotoxicity at 72 h, 1000 μg/ml","[2]; human PBMCs, 72 h, 1000 μg/ml",70.8%
same,"cytotoxicity at 72 h, 2000 μg/ml","[2]; human PBMCs, 72 h, 2000 μg/ml",66.1%
same,"cytotoxicity at 24 h, 10 μg/ml","[2]; peripheral blood mononuclear cells (PBMCs), 24 h, 10 μg/ml",-76.5%
same,"cytotoxicity at 24 h, 50 μg/ml","[2]; peripheral blood mononuclear cells (PBMCs), 24 h, 50 μg/ml",-67.1%
same,"cytotoxicity at 24 h, 100 μg/ml","[2]; peripheral blood mononuclear cells (PBMCs), 24 h, 100 μg/ml",-88.3%
same,"cytotoxicity at 24 h, 500 μg/ml","[2]; peripheral blood mononuclear cells (PBMCs), 24 h, 500 μg/ml",-105%
same,"cytotoxicity at 72 h, 10 μg/ml","[2]; peripheral blood mononuclear cells (PBMCs), 72 h, 10 μg/ml",18.7%
same,"cytotoxicity at 72 h, 50 μg/ml","[2]; peripheral blood mononuclear cells (PBMCs), 72 h, 50 μg/ml",20.1%
same,"cytotoxicity at 72 h, 100 μg/ml","[2]; peripheral blood mononuclear cells (PBMCs), 72 h, 100 μg/ml",14%
same,IC50,Human PBMCs; 24 h,1400 µM
same,IC50,Human PBMCs; 72 h,680 µM
same,IC50 value,Human PBMCs; 24 h,2 mg/mL
same,cytotoxicity,"Human PBMCs; 24 h, at concentrations 1 mg/ml",40% to 53%
same,IC50 value,Human PBMCs; 72 h,0.98 mg/mL
same,cytotoxicity,"Human PBMCs; 72 h, concentrations >0.5 mg/ml",33% to 66%
same,MFC,[3]; 0.9% NaCl (for IV),>25.0 mg/mL
same,Stability of formulation at RT,[3]; 0.9% NaCl (for IV),Up to 24 hrs
same,MFC,[3]; [4],>25.0 mg/mL
same,Stability of formulation at RT,[3]; [4],Up to 24 hrs
